Results taken from patent US4078058A (priority 1976, dated 1978).

How the values were obtained:
Assay type in all cases: cell-based
Pseudomonas aeruginosa = test: In vitro inhibition in nutrient broth, Pseudomonas aeruginosa; conditions: no growth by 48 hours; inoculum 0.2 ml of 1/10,000 dilution of overnight culture
Procedure: (§1) In these tests bacterial growth was measured or observed by turbidity in the test tubes containing the inoculated nutrient broth after 18-20 hours incubation at 37° C.
(§2) *Concentration -- μM/ml which permitted no growth by 48 hours.
(§3) Inoculum = 0.2 ml of 1/10,000 dilution of overnight culture.

Esch. coli = test: In vitro inhibition in nutrient broth, Esch. coli; conditions: no growth by 48 hours; inoculum 0.2 ml of 1/10,000 dilution of overnight culture
Procedure: as §1, §2, §3

Staph. aureus = test: In vitro inhibition in nutrient broth, Staph. aureus; conditions: no growth by 48 hours; inoculum 0.2 ml of 1/10,000 dilution of overnight culture
Procedure: as §1, §2, §3

Klebsiella pneumoniae = test: In vitro inhibition in nutrient broth, Klebsiella pneumoniae; conditions: no growth by 48 hours; inoculum 0.2 ml of 1/10,000 dilution of overnight culture
Procedure: as §1, §2, §3

bacterial growth = test: Inhibition of bacterial growth in nutrient broth (turbidity), organism not specified; conditions: 18-20 hours incubation at 37° C.
Procedure: as §1

| Structure (SMILES) | Inhibitory concentration, Pseudomonas aeruginosa (Pseudomonas aeruginosa) | Inhibitory concentration, Esch. coli (Esch. coli) | Inhibitory concentration, Staph. aureus (Staph. aureus) | Inhibitory concentration, Klebsiella pneumoniae (Klebsiella pneumoniae) | concentration inhibiting bacterial growth (bacterial growth) |
| --- | --- | --- | --- | --- | --- |
| O=[N+]([O-])[O-].[Ag+] [Silver nitrate, silver nitrate] | 0.025 μM per ml | 0.005 μM per ml | 0.005 μM per ml | 0.1 μM per ml | – |
| O=[N+]([O-])[O-].O=[N+]([O-])[O-].O=[N+]([O-])[O-].[Ce+3] [Cerous nitrate, cerous nitrate] | 2.5 μM per ml | 2.5 μM per ml | 5.0 μM per ml | 5.0 μM per ml | at least 1.0 μM per ml |
